Data from patent publication US20050215517A1, “Use of an anti-endotoxin drug in the prevention and treatment of disease” (priority 1999, published 2005).

Tests used:
LPS-induced IL-6 release = assay: Inhibition of LPS-induced IL-6 release in ex vivo blood samples during intravenous infusion of E5564; set-up: species or system beagle dogs
Description: (§1) FIG. 5 is a pair of graphs showing ex vivo analysis of active E5564 during intravenous infusion. Activity of E5564 was determined during intravenous infusion of 0.24 mg/kg/hour E5564 (□,∘) or 2.4 mg/kg/hour E5564 (▪,●) into female (upper panel) or male (lower panel) beagle dogs. At the indicated times, blood was drawn and analyzed for E5564 activity by adding 1 ng/ml LPS, incubating for three hours at 37° C., and assaying the plasma fraction for IL-6 by bioassay, as is described in the Materials and Methods section (below). Each value represents the mean±standard deviation of samples assayed in duplicate from each animal. The zero hour sample was taken prior to infusion.
as §1, with “FIG. 6” for “FIG. 5”, “adding 10” for “adding 1”
as §1, with “FIG. 7” for “FIG. 5”, “adding 100” for “adding 1”
To assess the activity of E5564 over multiple time points from a single treated animal, we employed an ex vivo assay, as is mentioned above, to test for active drug in samples of blood drawn from a treated animal. Samples of blood were drawn from beagle dogs infused with E5564 over a period of 24 hours. One dog of each sex was tested under each of two dose regimens: a low dose of 0.24 mg/kg/hour and a high dose of 2.4 mg/kg/hour.
Blood samples were taken from these dogs at predose, 4 hours after initiation of infusion, and 24 hours after initiation of infusion. The blood samples were challenged with 0, 1, 10, or 100 ng/ml LPS, and then incubated for three hours. The samples were then analyzed for activation by LPS, using induction of cytokine response as a readout.
LPS from Escherichia coli (0111:B4) was purchased from List Biologicals (Campbell, Calif.). LPS was dissolved in sterile water at 1 mg/ml and stored at −20° C. Prior to use, LPS was sonicated in a bath sonicator (VW-380; Heat Systems-Ultrasonics Inc., Farmingdale, N.Y.) for 1-2 minutes immediately before use and diluted into Ca^2+, Mg^2+ free Hanks balanced salt solution (HBSS; Sigma).
Dogs were treated with E5564 (0.24 or 2.4 mg/kg/hour) dissolved in a mixture of placebo solution (10% lactose monohydrate, 0.045% Na2HPO4.7H2O, 0.035% NaH2PO4.H2O, 0.006% NaOH; pH 7.4±0.3) and 5% dextrose (1:4) by intravenous infusion via indwelling catheter for 24 hours at a rate of 2 mg/kg/hour.
(for time zero samples), or incubated with the indicated concentrations of LPS for three hours. Plasma was then prepared and immediately frozen at −80° C. Samples were stored at −80° C. until assay.
B9 cells were the gift of Dr. Mary Rodrick (Beth Israel Deaconess Hospital, Boston, Mass.). They were grown in Iscove's DMEM medium containing 5% fetal bovine serum (FBS), […] 2-mercaptoethanol, 2 mM L-glutamine, and 100 U/ml penicillin/streptomycin. […]

[1] = Plasma pharmacokinetics of E5564 after 72 hours intravenous infusion; type: in vivo, beagle dogs; details: 72 h i.v. infusion; for T½: after end of infusion
Description: FIG. 4 is a graph showing the plasma levels of E5564 during and after 72 hours of intravenous infusion. […] At the indicated times, blood was drawn and analyzed for E5564 concentration by extraction and analysis by HPLC. Each value represents the mean±S.E.M. of three animals. No drug was detectable in samples drawn prior to dosing.
This long-term presence of unmodified E5564 in blood initially led us to believe that active drug was likely present for very long periods of time after cessation of drug administration.

With `CCCCCC/C=C\CCCCCCCCCC(=O)N[C@H]1[C@H](OC[C@H]2O[C@H](OP(=O)(O)O)[C@H](NC(=O)CC(=O)CCCCCCCCCCC)[C@@H](OCCCCCCCCCC)[C@@H]2O)O[C@H](COC)[C@@H](OP(=O)(O)O)[C@@H]1OCC[C@@H](CCCCCCC)OC` [E5564, α-D-Glucopyranose, 3-O-decyl-2-deoxy-6-O-[2-deoxy-3-O-[(3R)-3-methoxydecyl)-6-O-methyl-2-[[(11Z)-1-oxo-11-octadecenyl)amino]-4-O-phosphono-β-D-glucopyranosyl]-2-[(1,3-dioxotetradecyl)amino]-,1-(dihydrogen phosphate)] the “Inhibition of response to LPS (IL-6) vs predose” value (LPS-induced IL-6 release; infusion 0.24 mg/kg/hour, 1 ng/ml LPS, 4 hours after beginning infusion) was no less than 98%, the “Inhibition of response to LPS (IL-6) vs predose” value (LPS-induced IL-6 release; infusion 0.24 mg/kg/hour, 1 ng/ml LPS, end of infusion (24 hours)) was “complete” and the “Inhibition of response to LPS (IL-6) vs predose” value (LPS-induced IL-6 release; infusion 0.24 mg/kg/hour, 10 ng/ml LPS, end of infusion (24 hours)) was roughly 85%. For the same molecule, the “Maximum inhibition of response to LPS (IL-6) vs predose” value (LPS-induced IL-6 release; infusion 0.24 mg/kg/hour, 100 ng/ml LPS, end of infusion (24 hours)) was 34-52%, the “Inhibition of response to LPS (IL-6) vs predose” value (LPS-induced IL-6 release; infusion 2.4 mg/kg/hour, 1 ng/ml LPS, 4 hours after beginning infusion) was “complete inhibition” and the “Inhibition of response to LPS (IL-6) vs predose” value (LPS-induced IL-6 release; infusion 2.4 mg/kg/hour, 1 ng/ml LPS, end of infusion (24 hours)) was “complete”. The “Inhibition of response to LPS (IL-6) vs predose” value (LPS-induced IL-6 release; infusion 2.4 mg/kg/hour, 10 ng/ml LPS, 4 hours) was “nearly completely inhibited”, the “Inhibition of response to LPS (IL-6) vs predose” value (LPS-induced IL-6 release; infusion 2.4 mg/kg/hour, 10 ng/ml LPS, end of infusion (24 hours)) was “complete” and the “Inhibition of response to LPS (IL-6) vs predose” value (LPS-induced IL-6 release; infusion 2.4 mg/kg/hour, 100 ng/ml LPS, 4 hours) was “nearly completely inhibited”. For the same molecule, the “Inhibition of response to LPS (IL-6) vs predose” value (LPS-induced IL-6 release; infusion 2.4 mg/kg/hour, 100 ng/ml LPS, end of infusion (24 hours)) was greater than 90%, the AUC0-144 hours ([1]; dose 0.1 mg/kg, female) was 790 ± 51 µg·h/mL and the C72 hours ([1]; dose 0.1 mg/kg, female) was 10350 ± 930 ng/mL. For the same molecule, the AUC0-144 hours ([1]; dose 0.1 mg/kg, male) was 1069 ± 139 µg·h/mL, the C72 hours ([1]; dose 0.1 mg/kg, male) was 13070 ± 1220 ng/mL and the AUC0-144 hours ([1]; dose 0.3 mg/kg, female) was 2616 ± 737 µg·h/mL. It also gave a C72 hours ([1]; dose 0.3 mg/kg, female) of 32400 ± 5720 ng/mL, an AUC0-144 hours ([1]; dose 0.3 mg/kg, male) of 3309 ± 485 µg·h/mL and a C72 hours ([1]; dose 0.3 mg/kg, male) of 41290 ± 7180 ng/mL. For the same molecule, the AUC0-144 hours ([1]; dose 1 mg/kg, female) was 29642 ± 1514 µg·h/mL, the C72 hours ([1]; dose 1 mg/kg, female) was 393900 ± 14200 ng/mL and the AUC0-144 hours ([1]; dose 1 mg/kg, male) was 27114 ± 5737 µg·h/mL. For the same molecule, the C72 hours ([1]; dose 1 mg/kg, male) was 366000 ± 69300 ng/mL, the T½ ([1]; dose 0.1 mg/kg, female) was 40.9 ± 9.5 h and the T½ ([1]; dose 0.1 mg/kg, male) was 38.4 ± 4.5 h. The T½ ([1]; dose 0.3 mg/kg, female) was 38.0 ± 11.6 h, the T½ ([1]; dose 0.3 mg/kg, male) was 39.9 ± 11.2 h and the T½ ([1]; dose 1 mg/kg, female) was 32.0 ± 2.8 h. It also gave a T½ ([1]; dose 1 mg/kg, male) of 35.1 ± 8.7 h.
